pIC50: −log10 of the molar value. Several values for one entry are separate records, joined by “and”; a condition that tells them apart may be missing. Identical values can stand only once. Like-named read-outs stand apart in the source and are kept apart here.
Experiments:
[1] = test system: panel of 32 established human OVCA cell lines; experiment: Cell proliferation dose response (IncuCyte ZOOM), 48 h, whole panel; assay type: cell-based; settings: 32 OVCA cell lines, threshold for sensitive, read-out: geometric median of GI50
Description: The in vitro effects of CX-5461 on human OVCA cells were evaluated using a panel of 32 established human OVCA cell lines. These cell lines were selected to be representative of a range of histologic OVCA subtypes (Supplementary Table 1). Increasing concentrations (1 nM–10 μM) of CX-5461 were used to assess the concentration of drug that induced a 50% reduction in cell proliferation (GI50) at 48 hours (h). […] There was no statistically significant correlation between TP53 mutation status and sensitivity to CX-5461 (Supplementary Table 1, Fig. 1b). The efficacy of growth inhibition by CX-5461 correlated with a higher rate of basal rDNA transcription in the sensitive compared with the resistant OVCA cell lines (Fig. 1c).
Fig. 1 Sensitivity of ovarian cancer (OVCA) cell lines to CX-5461. a CX-5461 doses that induce 50% growth inhibition (GI50) at 48 hours. Error bars represent mean ± standard deviation (SD). […]
For assessing OVCA cells’ sensitivity to CX-5461, dose response curves were generated for each cell line by plating cells in 96-well plates, culturing them for 24 hours and then treating them with either vehicle or increasing concentrations of drug (0, 0.001, 0.003, 0.01, 0.03, 0.1, 0.3, 1, 3, 10 and 30 μM CX-5461) for 48 h. Cell number was assessed using the IncuCyte ZOOM imaging system (Essen BioScience). […] During this time the degree of confluency was measured every 24 h. […]

[2] = test system: Pol I transcription; experiment: Inhibition of Pol I transcription: 47S precursor rRNA levels by quantitative RT-PCR after 1 h treatment; assay type: cell-based, human; settings: for 47S precursor rRNA level, fold change relative to vehicle-treated controls: individual replicates; for pIC50: Homo sapiens
Description: Fig. 1 Sensitivity of ovarian cancer (OVCA) cell lines to CX-5461. a CX-5461 doses that induce 50% growth inhibition (GI50) at 48 hours. Error bars represent mean ± standard deviation (SD). Asterisks denote mutated TP53 status. […] Information regarding each cell lines source, mean G1_50 values, SD and N values are outlined in Supplementary Table 1. […] Statistical analysis was performed using a two-sided Mann–Whitney test. Error bars represent mean ± SD. c Baseline rDNA transcription rates of OVCA cell lines (listed in (d)), as determined by quantitative real-time PCR (qRT-PCR) analysis using primers specific to the external transcribed spacer 5’ETS (+413–521 bp) relative to the transcription start site (TSS). Expression levels in each cell line were normalised to Vimentin mRNA and expressed as fold change relative to TOV112D cells. Each dot represents the mean value of n = 3 biologically independent experiments per cell line (Individual data points are provided in Supplementary Data 4). Error bars represent mean ± SD. Statistical analysis was performed using a two-tailed unpaired t test. d Dose-response curves of 47S precursor rRNA levels measured by quantitative RT-PCR. OVCA cell lines were treated with vehicle or increasing drug concentrations of CX-5461 (0.001, 0.01, 0.03, 0.1, 0.3, 1 and 3 μM) for 1 h before RNA was harvested. Expression levels were normalised to Vimentin mRNA and expressed as fold change relative to vehicle-treated controls. Shown are the mean of n = 3 independent biological experiments for each cell line. (Individual data points are provided in Supplementary Data 4). e The mean inhibitory concentration values that led to 50% transcription inhibition (IC50) (of n = 3 biologically independent experiments for each cell line) from D are presented (Individual data points are provided in Supplementary Data 4). Error bars represent mean ± SD. Statistical analysis was performed using a two-sided Mann–Whitney test.
For Reverse-transcription qPCR analysis, cells were lysed, RNA extracted, and first-strand cDNA synthesized using random hexamer primers (Promega, C1181) and Superscript III (Invitrogen,18080044). Quantitative PCR (qPCR) was performed in duplicate using the FAST SYBR Green dye (Applied Biosystems, 4385610) on the StepOnePlus real-time PCR system (Applied Biosystems). Primer sequences are listed in (Supplementary Table 3).
Dose-response curves of 4 7S precursor rRNA levels (Figure 1D) measured by quantitative RT-PCR after 1h treatment. Expression levels
were normalised to Vimentin mRNA and expressed as fold change relative to vehicle-treated controls.
IC50 doses (Figure 1E) were determined from dose response curves in Figure 1D
using GraphPad Prism version 8.

Cc1cnc(CNC(=O)c2c(=O)c3ccc(N4CCCN(C)CC4)nc3n3c2sc2ccccc23)cn1 [CX-5461]
GI50 [1]: 0.363 µM | 47S precursor rRNA level, fold change relative to vehicle-treated controls ([2]; A2780, CX-5461 0.00000001 M, 1 h): 1.227 and 1.156 and 0.5552 | 47S precursor rRNA level, fold change relative to vehicle-treated controls ([2]; A2780, CX-5461 0.00000003 M, 1 h): 1.079 and 0.6056 and 0.5354 | 47S precursor rRNA level, fold change relative to vehicle-treated controls ([2]; A2780, CX-5461 0.0000001 M, 1 h): 0.7784 and 0.3051 and 0.7248 | 47S precursor rRNA level, fold change relative to vehicle-treated controls ([2]; A2780, CX-5461 0.0000003 M, 1 h): 0.4946 and 0.2868 and 0.2848 | 47S precursor rRNA level, fold change relative to vehicle-treated controls ([2]; A2780, CX-5461 0.000001 M, 1 h): 0.1884 and 0.1928 and 0.2616 | 47S precursor rRNA level, fold change relative to vehicle-treated controls ([2]; A2780, CX-5461 0.000003 M, 1 h): 0.1746 and 0.05092 and 0.1316 | 47S precursor rRNA level, fold change relative to vehicle-treated controls ([2]; A2780, CX-5461 1E-09 M, 1 h): 1.211 and 0.7921 and 0.6449 | 47S precursor rRNA level, fold change relative to vehicle-treated controls ([2]; EFO21, CX-5461 0.00000001 M, 1 h): 1.115 and 1.095 and 1.792 | 47S precursor rRNA level, fold change relative to vehicle-treated controls ([2]; EFO21, CX-5461 0.00000003 M, 1 h): 1.11 and 1.692 and 0.987 | 47S precursor rRNA level, fold change relative to vehicle-treated controls ([2]; EFO21, CX-5461 0.0000001 M, 1 h): 0.7444 and 0.9773 and 0.668 | 47S precursor rRNA level, fold change relative to vehicle-treated controls ([2]; EFO21, CX-5461 0.0000003 M, 1 h): 0.2419 and 0.3103 and 0.414 | 47S precursor rRNA level, fold change relative to vehicle-treated controls ([2]; EFO21, CX-5461 0.000001 M, 1 h): 0.2002 and 0.2399 and 0.3839 | 47S precursor rRNA level, fold change relative to vehicle-treated controls ([2]; EFO21, CX-5461 0.000003 M, 1 h): 0.1871 and 0.2673 and 0.0006867 | 47S precursor rRNA level, fold change relative to vehicle-treated controls ([2]; EFO21, CX-5461 1E-09 M, 1 h): 1.492 and 1.313 and 0.8129 | pIC50 ([2]; 1 h, 2008, 1 h, mean n=3, read-out: IC50 Pol I transcription): 7.31 | pIC50 ([2]; 1 h, ES2, 1 h, mean n=3, read-out: IC50 Pol I transcription): 7.26 | pIC50 ([2]; 1 h, JHOC9, 1 h, mean n=3, read-out: IC50 Pol I transcription): 6.57 | pIC50 ([2]; 1 h, JHOM1, 1 h, mean n=3, read-out: IC50 Pol I transcription): 6.70 | pIC50 ([2]; 1 h, KURAMOCHI, 1 h, mean n=3, read-out: IC50 Pol I transcription): 7.32 | pIC50 ([2]; 1 h, RMG2, 1 h, mean n=3, read-out: IC50 Pol I transcription): 6.95 | pIC50 ([2]; 1 h, sensitive and resistant OVCA cell lines, 1 h treatment, read-out: IC50 (concentration inhibiting Pol I transcription by 50%), range over cell lines): 6.55 to 7.42 | pIC50 ([2]; A2780, 1 h, mean n=3, read-out: IC50 Pol I transcription): 7.20 | pIC50 ([2]; COLO 704, 1 h, COLO704, 1 h, mean n=3, read-out: IC50 Pol I transcription): 7.01 | pIC50 ([2]; EFO-21, 1 h, EFO21, 1 h, mean n=3, read-out: IC50 Pol I transcription): 7.18 | pIC50 ([2]; IGROV-1, 1 h, IGROV1, 1 h, mean n=3, read-out: IC50 Pol I transcription): 7.42 | pIC50 ([2]; OV-90, 1 h, OV90, 1 h, mean n=3, read-out: IC50 Pol I transcription): 6.93 | pIC50 ([2]; OVCAR-3, 1 h, OVCAR3, 1 h, mean n=3, read-out: IC50 Pol I transcription): 7.17 | pIC50 ([2]; OVCAR-4, 1 h, OVCAR4, 1 h, mean n=3, read-out: IC50 Pol I transcription): 7.05 | pIC50 ([2]; OVCAR-8, 1 h, OVCAR8, 1 h, mean n=3, read-out: IC50 Pol I transcription): 7.01 | pIC50 ([2]; TOV112D, 1 h, TOV112D, 1 h, mean n=3, read-out: IC50 Pol I transcription): 6.87 | 47S precursor rRNA level, fold change relative to vehicle-treated controls ([2]; JHOC9, CX-5461 0.00000001 M, 1 h): 0.9254 and 0.9049 and 1.002 | 47S precursor rRNA level, fold change relative to vehicle-treated controls ([2]; JHOC9, CX-5461 0.00000003 M, 1 h): 1.057 and 1.034 and 0.8359 | 47S precursor rRNA level, fold change relative to vehicle-treated controls ([2]; JHOC9, CX-5461 0.0000001 M, 1 h): 0.8119 and 0.7939 and 0.6945 | 47S precursor rRNA level, fold change relative to vehicle-treated controls ([2]; JHOC9, CX-5461 0.0000003 M, 1 h): 0.5763 and 0.5636 and 0.384 | 47S precursor rRNA level, fold change relative to vehicle-treated controls ([2]; JHOC9, CX-5461 0.000001 M, 1 h): 0.3587 and 0.3508 and 0.2158 | 47S precursor rRNA level, fold change relative to vehicle-treated controls ([2]; JHOC9, CX-5461 0.000003 M, 1 h): 0.08402 and 0.08216 and 0.06114 | 47S precursor rRNA level, fold change relative to vehicle-treated controls ([2]; JHOC9, CX-5461 1E-09 M, 1 h): 1.047 and 1.024 and 0.8051 | 47S precursor rRNA level, fold change relative to vehicle-treated controls ([2]; OV90, CX-5461 1E-09 M, 1 h): 1.356 | 47S precursor rRNA level, fold change relative to vehicle-treated controls ([2]; RMG2, CX-5461 0.00000001 M, 1 h): 1.019 and 0.9292 and 0.7914 | 47S precursor rRNA level, fold change relative to vehicle-treated controls ([2]; RMG2, CX-5461 0.00000003 M, 1 h): 0.8882 and 0.4552 and 0.4564 | 47S precursor rRNA level, fold change relative to vehicle-treated controls ([2]; RMG2, CX-5461 0.0000001 M, 1 h): 0.8694 and 0.414 and 0.3672 | 47S precursor rRNA level, fold change relative to vehicle-treated controls ([2]; RMG2, CX-5461 0.0000003 M, 1 h): 0.5159 and 0.1241 and 0.09886 | 47S precursor rRNA level, fold change relative to vehicle-treated controls ([2]; RMG2, CX-5461 0.000001 M, 1 h): 0.2164 and 0.1124 and 0.1026 | 47S precursor rRNA level, fold change relative to vehicle-treated controls ([2]; RMG2, CX-5461 0.000003 M, 1 h): 0.06697 and 0.02897 and 0.03341 | 47S precursor rRNA level, fold change relative to vehicle-treated controls ([2]; RMG2, CX-5461 1E-09 M, 1 h): 0.7818 and 0.717 and 0.6208 | 47S precursor rRNA level, fold change relative to vehicle-treated controls ([2]; TOV112D, CX-5461 0.00000001 M, 1 h): 1.178 and 0.9492 | 47S precursor rRNA level, fold change relative to vehicle-treated controls ([2]; TOV112D, CX-5461 0.00000003 M, 1 h): 0.9271 | 47S precursor rRNA level, fold change relative to vehicle-treated controls ([2]; TOV112D, CX-5461 0.0000001 M, 1 h): 1.01 | 47S precursor rRNA level, fold change relative to vehicle-treated controls ([2]; TOV112D, CX-5461 0.0000003 M, 1 h): 0.388 and 0.509 | 47S precursor rRNA level, fold change relative to vehicle-treated controls ([2]; TOV112D, CX-5461 0.000001 M, 1 h): 0.1661 and 0.2245 and 0.333 | 47S precursor rRNA level, fold change relative to vehicle-treated controls ([2]; TOV112D, CX-5461 0.000003 M, 1 h): 0.1644 and 0.0787 and 0.1952 | 47S precursor rRNA level, fold change relative to vehicle-treated controls ([2]; TOV112D, CX-5461 1E-09 M, 1 h): 1.079 and 1.012 and 1.217

From publication PMC7251123, “CX-5461 activates the DNA damage response and demonstrates therapeutic efficacy in high-grade serous ovarian cancer” (Nature Communications, 2020)
